# Measured values taken from patent publication US12404304B1, “Telomerase reverse transcriptase (TERT) expression enhancing compounds and methods for using the same” (Sierra Sciences, LLC, priority 2007, dated 2025).
# Tests used:
# [1] = test system: human TERT expression (hTERT mRNA); assay: Quantitative real-time RT-PCR of hTERT mRNA expression (Ct, transcripts) in compound-treated cells; format: cell-based; settings: quantitative real-time RT-PCR
# Excerpt: Telomerase is a ribonucleoprotein complex composed of the catalytic protein subunit (human telomerase reverse transcriptase or hTERT) and the RNA template. hTERT expression level can be measured by PCR.
# Briefly, amplification of the target sequence is monitored per PCR cycle by detecting the fluorescence signal emitted by an internal probe that is degraded by the 5′ nuclease activity of the Taq polymerase. The emission signal accumulates in each sample, and the Ct required to reach a given fluorescence threshold is determined (Ct stands for Cycle Threshold and is a measure of the number of PCR cycles that are required to amplify a target—thus, a lower Ct score means that there is more abundant hTERT mRNA). Thus, the Ct value of a sample inversely correlates to the quantity of the starting cDNA which correlates to the number of mRNA transcripts. Using the cDNA of known quantity, a standard curve can be generated and used to determine the starting amount of mRNA transcripts based on the […] of each sample.
# Quantitative real-time PCR can be done on cDNA from test compound-treated and nontreated cells by use of a ABI Prism 7900 Sequence Detection System (PE Applied Biosystems, Foster City, CA) following the Assays-on-Demand protocol (PE Applied Biosystems, Foster City, CA). Quantitative data can be analyzed using the Sequence Detection System software version 2.1 (PE Applied Biosystems).
# The following compounds were tested in assays designed to identify compounds that enhance human TERT expression.
# [2] = test system: viable cells in culture; assay: Cell viability assay (CellTiter-Glo Luminescent Cell Viability Assay, ATP quantitation, percent of vehicle control)
SMILES,Average Number of hTERT Transcripts [1],Average Cell Viability after 24 Hours (% DMSO) [2] [% DMSO]
CCCC(=O)NC(c1ccc(SC)cc1)c1ccc2cccnc2c1O (stereo not shown) [compound 1010],35.70,86.63
COc1cc(NS(=O)(=O)c2cc(Cl)ccc2Cl)c2ncccc2c1 [compound 1026],11.55,52.03
CC(=O)NC(c1ccc(N(C)C)cc1)c1cc(Cl)c2cccnc2c1O (stereo not shown) [compound 1059],26.79,53.52
COc1ccc(C(NC(=O)CC(C)C)c2ccc3cccnc3c2O)cc1OC (stereo not shown) [compound 1076],61.45,62.85
Cc1cn(-c2ccc3c(Cl)cc(Cl)c(O)c3n2)nc1C [compound 1079],98.36,71.22
Cc1ccnc(NC(c2cccc(Cl)c2)c2ccc3ccc(C)nc3c2O)c1 (stereo not shown) [compound 1080],,72.44
Cc1ccnc(NC(c2ccc([N+](=O)[O-])cc2)c2ccc3ccc(C)nc3c2O)c1 (stereo not shown) [compound 1081],18.87,70.69
Oc1c(C(Nc2ccccn2)c2ccc(Cl)c(Cl)c2)ccc2cccnc12 (stereo not shown) [compound 1082],,56.92
Cc1ccnc(NC(c2cccc(Br)c2)c2ccc3ccc(C)nc3c2O)c1 (stereo not shown) [compound 1083],,74.39
Cc1ccnc(NC(c2cccc([N+](=O)[O-])c2)c2ccc3ccc(C)nc3c2O)c1 (stereo not shown) [compound 1084],11.54,65.08
Oc1c(CN2CCN(Cc3ccc4cccnc4c3O)CC2)ccc2cccnc12 [compound 1085],59.41,61.83
O=C(NC(c1ccccc1)c1ccc2cccnc2c1O)c1ccccc1 (stereo not shown) [compound 1086],,56.53
CC(C)C(=O)NC(c1ccco1)c1ccc2cccnc2c1O (stereo not shown) [compound 1087],,72.33
Cc1ccc(C(NC(=O)C(C)C)c2ccc3cccnc3c2O)cc1 (stereo not shown) [compound 1088],,55.87
CCN1CCN(Cc2ccc3cccnc3c2O)CC1 [compound 1089],,89.98
CC(C)C(=O)NC(c1cccs1)c1cc(Cl)c2cccnc2c1O (stereo not shown) [compound 1090],29.08,27.89
Cc1ccc(S(=O)(=O)Nc2ccc(O)c3ncccc23)cc1 [compound 1091],,94.30
Cc1ccc(S(=O)(=O)Nc2cc(Cl)c(O)c3ncccc23)cc1 [compound 1092],,66.43
Cc1ccc(S(=O)(=O)Nc2cc(S(=O)(=O)c3ccc(C)cc3)c(O)c3ncccc23)cc1 [compound 1093],,66.50
Oc1c(C(Nc2ccccn2)c2ccccc2Cl)ccc2cccnc12 (stereo not shown) [compound 1094],32.08,56.64
Oc1c(C(Nc2ccccc2Cl)c2ccccn2)ccc2cccnc12 (stereo not shown) [compound 1095],,56.93
CCN(CC)Cc1ccc(O)c2ncccc12 [compound 1096],,67.13
COCc1cc(CN2CCCC2)c(O)c2ncccc12 [compound 1097],,78.08
COCc1cc(CN2CCCCC2)c(O)c2ncccc12 [compound 1098],,68.58

SMILES,Average Number of hTERT Transcripts [1],Average Cell Viability after 24 Hours (% DMSO) [2] [% DMSO]
CCOCc1cc(CN2CCCCC2)c(O)c2ncccc12 [compound 1099],,64.22
CCCOCc1cc(CN2CCCCC2)c(O)c2ncccc12 [compound 1100],,56.10
CCCOCc1cc(CN2CCN(C)CC2)c(O)c2ncccc12 [compound 1101],,76.69
CC(C)OCc1cc(CN2CCCCC2)c(O)c2ncccc12 [compound 1102],,68.56
CC1CCN(Cc2cc(COC(C)C)c3cccnc3c2O)CC1 [compound 1103],,58.35
Cc1cc(NC(c2ccccn2)c2ccc3cccnc3c2O)no1 (stereo not shown) [compound 1104],,71.14
Cc1ccc2c(I)cc(I)c(O)c2n1 [compound 1105],,58.63
COc1ccc(-c2cc(O)n(-c3ccc([N+](=O)[O-])cc3)n2)cc1 [compound 1106],68.17,79.49
COc1ccc(C2=NN(c3nc4ccccc4s3)C(=O)C2)cc1 [compound 1107],67.06,98.68
Oc1cc(-c2ccccc2)nn1-c1nc2ccccc2[nH]1 [compound 1108],79.20,94.50
CC1=NN(c2nc3ccccc3s2)C(=O)C1CCC(C)C (stereo not shown) [compound 1109],35.79,67.53
Oc1cc(-c2ccc(F)cc2)nn1-c1nc2ccccc2[nH]1 [compound 1110],86.68,100.67
CCCCc1c(C)nn(-c2nc3ccccc3[nH]2)c1O [compound 1111],18.99,47.04
Oc1c2c(nn1-c1nc3ccccc3[nH]1)CCCC2 [compound 1112],112.20,77.30
Oc1c2c(nn1-c1nc3ccccc3s1)CCCC2 [compound 1113],66.98,89.80
CCc1c(C)nn(-c2nc3ccccc3s2)c1O [compound 1114],148.58,89.40
COc1cc([C@@H]2c3cc4c(cc3C(OC3O[C@@H]5COC(C)O[C@H]5[C@H](O)[C@H]3O)C3COC(=O)[C@@H]32)OCO4)cc(OC)c1O (stereo partly shown) [compound 1224],89.52,
O=S1(=O)CCC(N2COc3c(cc(Cl)c4cccnc34)C2)C1 (stereo not shown) [compound 1462],,62.26
Cc1ccc2ccc(C(Nc3ccccn3)c3ccccc3Br)c(O)c2n1 (stereo not shown) [compound 1477],,76.49
O=C(CCc1ccccc1)NC(c1ccc(Cl)cc1)c1ccc2cccnc2c1O (stereo not shown) [compound 1478],,72.44
CC(C)C(=O)NC(c1ccccc1)c1cc([N+](=O)[O-])c2cccnc2c1O (stereo not shown) [compound 1479],,68.20
Cc1ccc2ccc(C(Nc3ccccn3)c3ccccc3Cl)c(O)c2n1 (stereo not shown) [compound 1480],,79.43
COc1ccc(C(NC(=O)C(C)C)c2cc([N+](=O)[O-])c3cccnc3c2O)cc1OC (stereo not shown) [compound 1481],,78.30
Oc1ccc(CN2CCN(c3cccc(Cl)c3)CC2)c2cccnc12 [compound 1482],,80.49
